Experimental data: article PMC7898037, “Improving mitochondria and ER stability helps eliminate upper motor neuron degeneration that occurs due to mSOD1 toxicity and TDP‐43 pathology” (Clinical and Translational Medicine, 2021)

Tested on: UMNs of hSOD1^G93A‐UeGFP mice
Test: EM quantification of mitochondria and ER in UMNs, hSOD1^G93A‐UeGFP mice
Type: in vivo
Protocol: hSOD1^G93A‐UeGFP, prpTDP‐43^A315T‐UeGFP and WT‐UeGFP mice were weighed and the required NU‐9 dose per weight was calculated (20 or 100 mg/kg), which was administered once daily by oral gavage, starting at postnatal day (P)60 and continuing until P120. Animals from the untreated group received the vehicle (NMP and olive oil) only. For oral administration purposes, 20 ga × 38 mm plastic feeding tubes were used (Instech Laboratories, Inc). The gavage tip was inserted into the mouth directly over the tongue and into the pharynx. While observing the swallowing reflex, the tip was safely and smoothly slid into the esophagus. Once the administration was completed, the gavage tip was pulled straight out.
Mice were perfused with EM grade 4% PFA. One hemisphere of the brain was sectioned at 50 µm thickness coronally on a vibratome (Leica VT1000S, Leica Inc., Nussloch, Germany). The sections were postfixed in 2% PFA and 0.5% glutaraldehyde for 1 h, they were cryoprotected with glycerol–dimethylsulfoxide (DMSO) mixture followed by freeze–thaw at least four times, and treated with 1% sodium borohydride. They were then treated with 0.3% H2O2–10% methanol in TBS (100 mM Tris–HCl and 150 mM NaCl, pH 7.6) and 5% normal goat serum–1% bovine serum albumin in TBS to block nonspecific binding of primary antibody. This mixture was incubated overnight with rat anti‐Ctip2 antibody (1:500, Thermo Fisher Scientific, Rockford, IL, USA). Biotinylated goat anti‐rat IgG (1:500, Vector Laboratories, Burlingame, CA, USA) was used as the secondary antibody, and diaminobenzidine (DAB) was applied as the chromogen (ABC Elite kit, Vector Laboratories, Burlingame, CA, USA). Sections were then postfixed in buffered 2% osmium tetroxide (OsO4) (Electron Microscopy Sciences, Hatfield, PA, USA), rinsed with distilled water, and stained in 1% uranyl acetate (Electron Microscopy Sciences, Hatfield, PA, USA), again rinsed with distilled water, dehydrated in ascending grades of ethanol with transition fluid propylene oxide (Electron Microscopy Sciences, Hatfield, PA, USA), embedded in the resin mixture with Embed 812 (Electron Microscopy Sciences, Hatfield, PA, USA), and cured in a 60°C oven for 3 days. The sections in which primary motor cortex was present and visible under bright‐field illumination on a dissecting scope were selected. Approximately, 5‐mm‐wide × 7‐mm‐long pieces of the motor cortex from these sections were dissected under the microscope mounted on a resin block and were sectioned on a Leica Ultracut UC6 ultramicrotome (Leica Inc., Nussloch, Germany). The motor cortex was further trimmed, and only layer 5 was kept intact for preparing ultrathin sections. UMNs were identified based on the presence of Ctip2 immunohistochemistry (DAB) in their nuclei (Figure S1). Seventy‐nanometer‐thin sections were collected on 200‐mesh copper–palladium grids. Grids were counterstained with 8% radioactive depleted uranyl acetate and 0.2% lead citrate. Grids were examined on FEI Tecnai Spirit G2 TEM (FEI company, Hillsboro, OR, USA), and digital images were captured on a FEI Eagle camera.
EM images of Betz cells of normal control and patients, Ctip2‐positive (Ctip2^+) UMN of WT, and hSOD1^G93A‐UeGFP and prpTDP‐43^A315T‐UeGFP mice (Figure S1) were acquired from 70‐nm ultrathin sections of the motor cortex, and EM images were taken on FEI Tecnai Spirit G2 TEM using FEI Eagle camera. Mitochondria were quantified, as described previously. ^34 Mitochondria with intact outer and inner membrane and with intact cristae were considered healthy. Mitochondria with morphological defects, such as broken outer and/or inner membrane and cristae, were counted individually and were reported as percentage of defective mitochondria. ER that are disintegrated and that display profound expansion were considered unhealthy. Length of ER cisternae was measured using line tool of ImageJ software (NIH) upon calibration for pixels/micrometer using set scale function. […]

[1] = hSOD1G93A-UeGFP (NU-9 100 mg/kg/day)
[2] = hSOD1^G93A‐UeGFP mice, 100 mg/kg/day oral gavage P60–P120, at P120

C[C@H](Oc1cc(C(F)(F)F)cc(C(F)(F)F)c1)C1CC(=O)CC(=O)C1 [NU‐9]
Fig. 2O group mean (total number of mitochondria/UMN) [1]: 21.13
Fig. 2P group mean (percentage of healthy mitochondria/UMN) [1]: 86.3
Fig. 2R group mean (average length of ER cisternae/UMN) [1]: 1.136
average length of ER cisternae [2]: 1.13 ± 0.1 µm
number of healthy ER cisternae [2]: 14 ± 2 ER cisternae/UMN/section
percentage of healthy mitochondria in UMNs [2]: 86% ± 3%
total number of mitochondria in UMNs [2]: 21 ± 2 mitochondria/UMN/section
